According to US10954252B1, “Inhibitors of human immunodeficiency virus replication” (ViiV HEALTHCARE UK (NO.5) LIMITED, priority 2017, dated 2021):

Experiments:
[1] = Compound cytotoxicity, XTT-based colorimetric assay; type: cell-based; conditions: human, uninfected MT2 cells
Procedure, shortened: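 XTT colorimetric read-out on day 4 gave CC50 values, using MT2 cells left uninfected but otherwise handled as in the antiviral assay.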

[2] = tested on: recombinant NL4-3 virus (nef section replaced with Renilla luciferase gene) in MT-2 cells; experiment: HIV cell culture assay (antiviral activity, luciferase readout); type: cell-based; conditions: MT-2 cells infected for 4-5 days with recombinant NL4-3 luciferase virus
Procedure, shortened: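 Serially diluted compounds were present throughout a 4-5 day infection of MT-2 cells by recombinant NL4-3 whose nef region partly encodes Renilla luciferase. Antiviral activity was taken from live-cell luciferase signal, with the 50% effective concentration fitted by the exponential median effect equation.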

Compound | CC50 at 4 days ([1]; Table 1a, day 4, XTT) [nM] | EC50 ([2]; Renilla, NL43, Table 1a) [nM] | CC50 at 4 days ([1]; Table 1, day 4, XTT) [nM] | EC50 ([2]; Renilla, NL43, Table 1) [nM] | EC50 ([2]; Table 1a) [nM]
CN1Cc2ccc(-c3cc4[nH]ncc4nc3[C@H](Cc3cc(F)cc(F)c3)NC(=O)Cn3nc(C(F)F)c4c3C(F)(F)[C@@H]3C[C@H]43)cc2C1=O [Example 23, 2-((3bS,4aR)-3-(difluoromethyl)-5,5-difluoro-3b,4,4a,5-tetrahydro-1H-cyclopropa[3,4]cyclopenta[1,2-c]pyrazol-1-yl)-N—((S)-2-(3,5-difluorophenyl)-1-(6-(2-methyl-3-oxoisoindolin-5-yl)-1H-pyrazolo[4,3-b]pyridin-5-yl)ethyl)acetamide] | 10000 | 21.8 | – | – | –
COc1ccc2c(=O)n(-c3ccc(Cl)c4c(NS(=O)(=O)C5CC5)nn(CC(F)F)c34)c([C@H](Cc3cc(F)cc(F)c3)NC(=O)Cn3nc(C(F)F)c4c3C(F)(F)[C@@H]3C[C@H]43)nc2c1 (single isomer, unassigned) [Example 192] | > 1000 | 0.04 | – | – | –
CC(C)c1ccc(-c2c(C(Cc3cc(F)cc(F)c3)NC(=O)Cn3nc(C(F)F)c4c3C(F)(F)[C@@H]3C[C@H]43)ncc3[nH]ncc23)cn1 (mixture of isomers) [Example 10.1] | – | – | > 10000 | 140 | –
Cn1nc(NS(C)(=O)=O)c2c(Cl)ccc(-n3c([C@H](Cc4cc(F)cc(F)c4)NC(=O)Cn4nc(C(F)(F)F)c5c4CCC5)nc4ncccc4c3=O)c21 [Example 52, N-[(1S)-1-[3-(4-chloro-3-methanesulfonamido-1-methyl-1H-indazol-7-yl)-4-oxo-3H,4H-pyrido[2,3-d]pyrimidin-2-yl]-2-(3,5-difluorophenyl)ethyl]-2-[3-(trifluoromethyl)-1H,4H,5H,6H-cyclopenta[c]pyrazol-1-yl]acetamide] | > 1000 | 0.039 | – | – | –
O=C(Cn1nc(C(F)F)c2c1C(F)(F)[C@@H]1C[C@H]21)N[C@@H](Cc1cc(F)cc(F)c1)c1nc2ncccc2c(=O)n1-c1ccc2c(c1)C(=O)NC2 [Example 31, 2-[(2S,4R)-9-(difluoromethyl)-5,5-difluoro-7,8-diazatricyclo[4.3.0.0^2,4]nona-1(6),8-dien-7-yl]-N-[(1S)-2-(3,5-difluorophenyl)-1-[4-oxo-3-(3-oxo-2,3-dihydro-1H-isoindol-5-yl)-3H,4H-pyrido[2,3-d]pyrimidin-2-yl]ethyl]acetamide] | > 10000 | 0.99 | – | – | –
Cn1nc(NS(C)(=O)=O)c2c(Cl)ccc(-n3c([C@H](Cc4cc(F)cc(F)c4)NC(=O)Cn4nc(C(F)F)c5c4C(F)(F)[C@@H]4C[C@H]54)nc4cc(C(C)(F)F)ccc4c3=O)c21 (mixture of isomers) [Example 195, N—((S)-1-(3-(4-chloro-1-methyl-3-(methylsulfonamido)-1H-indazol-7-yl)-7-(1,1-difluoroethyl)-4-oxo-3,4-dihydroquinazolin-2-yl)-2-(3,5-difluorophenyl)ethyl)-2-((3bS,4aR)-3-(difluoromethyl)-5,5-difluoro-3b,4,4a,5-tetrahydro-1H-cyclopropa[3,4]cyclopenta[1,2-c]pyrazol-1-yl)acetamide] | > 1000 | 74.4 | – | – | –
COc1ccc2c(=O)n(-c3ccc(Cl)c4c(NS(C)(=O)=O)nn(C)c34)c([C@H](Cc3cc(F)cc(F)c3)NC(=O)Cn3nc(C(F)F)c4c3C(F)(F)[C@@H]3C[C@H]43)nc2c1 (single isomer, unassigned) [Example 17] | – | – | > 10000 | 61 | –
COc1cc(OC)c2c(=O)n(-c3ccc(Cl)c4c(NS(C)(=O)=O)nn(C)c34)c([C@H](Cc3cc(F)cc(F)c3)NC(=O)Cn3nc(C(F)F)c4c3C(F)(F)[C@@H]3C[C@H]43)nc2c1 (single isomer, unassigned) [Example 181] | > 1000 | – | – | – | 23.1
CCOc1ccc2c(=O)n(-c3ccc(Cl)c4c(NS(C)(=O)=O)nn(C)c34)c(C(Cc3cc(F)cc(F)c3)NC(=O)Cn3nc(C(F)F)c4c3C(F)(F)[C@@H]3C[C@H]43)nc2n1 (mixture of isomers) [Example 60.1] | > 1000 | 0.397 | – | – | –
N#Cc1cc(-c2cc3[nH]ncc3nc2[C@H](Cc2cc(F)cc(F)c2)NC(=O)Cn2nc(C(F)F)c3c2C(F)(F)[C@@H]2C[C@H]32)ccc1Cl [Example 10.15, N—((S)-1-(6-(4-chloro-3-cyanophenyl)-1H-pyrazolo[4,3-b]pyridin-5-yl)-2-(3,5-difluorophenyl)ethyl)-2-((3bS,4aR)-3-(difluoromethyl)-5,5-difluoro-3b,4,4a,5-tetrahydro-1H-cyclopropa[3,4]cyclopenta[1,2-c]pyrazol-1-yl)acetamide] | – | – | 5500 | 1170 | –
Cc1ccc(C)c2c(=O)n(-c3ccc(Cl)c4c(NS(C)(=O)=O)nn(C)c34)c(C(Cc3cc(F)cc(F)c3)NC(=O)Cn3nc(C(F)F)c4c3C(F)(F)[C@@H]3C[C@H]43)nc12 (mixture of isomers) [Example 67] | > 1000 | 183 | – | – | –
Cn1nc(NS(C)(=O)=O)c2c(Cl)ccc(-n3c([C@H](Cc4cc(F)cc(F)c4)NC(=O)Cc4c[nH]c5ccc(F)cc45)nc4ncccc4c3=O)c21 [Example 51, N-[(1S)-1-[3-(4-chloro-3-methanesulfonamido-1-methyl-1H-indazol-7-yl)-4-oxo-3H,4H-pyrido[2,3-d]pyrimidin-2-yl]-2-(3,5-difluorophenyl)ethyl]-2-(5-fluoro-1H-indol-3-yl)acetamide] | > 1000 | 1.04 | – | – | –
Cn1nc(NS(C)(=O)=O)c2c(Cl)ccc(-n3c([C@H](Cc4cc(F)cc(F)c4)NC(=O)Cn4ccc(C5CC5)n4)nc4cccc(C(F)(F)F)c4c3=O)c21 (single isomer, unassigned) [Example 136] | > 1000 | 38.9 | – | – | –
Cn1nc(NS(C)(=O)=O)c2c(Cl)ccc(-c3nc4ccccc4nc3[C@@H](Cc3cc(F)cc(F)c3)NC(=O)Cn3nc(C(F)F)c4c3C(F)(F)[C@@H]3C[C@H]43)c21 [Example 155, N—((R)-1-(3-(4-chloro-1-methyl-3-(methylsulfonamido)-1H-indazol-7-yl)quinoxalin-2-yl)-2-(3,5-difluorophenyl)ethyl)-2-((3bS,4aR)-3-(difluoromethyl)-5,5-difluoro-3b,4,4a,5-tetrahydro-1H-cyclopropa[3,4]cyclopenta[1,2-c]pyrazol-1-yl)acetamide] | > 10000 | 35.8 | – | – | –
Cn1nc(NS(C)(=O)=O)c2c(Cl)ccc(-n3c([C@H](Cc4cc(F)cc(F)c4)NC(=O)Cn4nc(C(F)F)c5c4C(F)(F)[C@@H]4C[C@H]54)nc4cc(Cl)ccc4c3=O)c21 (mixture of isomers) [Example 167, N—((S)-1-(7-chloro-3-(4-chloro-1-methyl-3-(methylsulfonamido)-1H-indazol-7-yl)-4-oxo-3,4-dihydroquinazolin-2-yl)-2-(3,5-difluorophenyl)ethyl)-2-((3bS,4aR)-3-(difluoromethyl)-5,5-difluoro-3b,4,4a,5-tetrahydro-1H-cyclopropa[3,4]cyclopenta[1,2-c]pyrazol-1-yl)acetamide] | > 1000 | – | – | – | 80.5
